Measured values published in US20260070887A1 (Shenzhen Zhongge Biological Technology Co., Ltd., priority 2022, published 2026).
Like-named read-outs stand apart in the source and are kept apart here.

Experiments:
KIF18A = KIF18A (Homo sapiens (Human), UniProt Q8NI77); test: KIF18A ATPase activity under tubulin stimulation (ADP-Glo assay); assay type: biochemical; conditions: KIF18A 30 nM, ATP 150 μM, pig microtubules
OVCAR-3 cells = test: OVCAR-3 cell proliferation (Cell Titer-Glo, 10 days); assay type: cell-based, human
Procedure: The inhibitory effect on the KIF18A target by the compounds of the present disclosure was evaluated by testing the inhibitory effect on proliferation of OVCAR-3 cells by the compounds of the present disclosure.
The following method was used to determine the effect of the compounds of the present disclosure on the proliferation of human ovarian cancer cells Ovcar-3 (HTB-161, ATCC). Cells were cultured in RPMI-1640 complete medium containing 20% fetal bovine serum, 0.01 mg/mL bovine insulin, 100 U penicillin, and 100 μg/mL streptomycin. The Promega kit Cell Titer-Glo (Cat. No. G7572) was used in this method for test.
For specific steps, reference was made to the kit instructions, and the procedure was outlined below: Test compounds were dissolved in DMSO to prepare a 10 mM stock solution, which was diluted at the predetermined test concentrations, and the test compounds at different concentrations were added to a 384-well cell test plate using ECHO. In the plate pre-added with the test compounds, 400 OVCAR-3 cells in the logarithmic growth phase were seeded per well, ensuring the final concentration of the test compounds in the reaction system ranged between 0.12 nM and 10 μM. The co-culture was maintained in a cell culture incubator for 10 days. Before testing, the cell culture plate was equilibrated for 10 minutes at room temperature, 25 μL of Cell Titer-Glo was added to each well, and the mixture was shaken and mixed well and let stand for 5 minutes. The luminescence values for samples in various wells were read using a microplate reader in Luminescence mode.
The percentage of inhibition of cell proliferation by the test compound at each concentration was calculated by comparing with the values of the control group (0.1% DMSO). The IC50 values of the compounds were obtained by concentration-inhibition rate nonlinear regression analysis of the test compounds using GraphPad Prism 9.

KIF18A, sequence (Q8NI77 whole entry): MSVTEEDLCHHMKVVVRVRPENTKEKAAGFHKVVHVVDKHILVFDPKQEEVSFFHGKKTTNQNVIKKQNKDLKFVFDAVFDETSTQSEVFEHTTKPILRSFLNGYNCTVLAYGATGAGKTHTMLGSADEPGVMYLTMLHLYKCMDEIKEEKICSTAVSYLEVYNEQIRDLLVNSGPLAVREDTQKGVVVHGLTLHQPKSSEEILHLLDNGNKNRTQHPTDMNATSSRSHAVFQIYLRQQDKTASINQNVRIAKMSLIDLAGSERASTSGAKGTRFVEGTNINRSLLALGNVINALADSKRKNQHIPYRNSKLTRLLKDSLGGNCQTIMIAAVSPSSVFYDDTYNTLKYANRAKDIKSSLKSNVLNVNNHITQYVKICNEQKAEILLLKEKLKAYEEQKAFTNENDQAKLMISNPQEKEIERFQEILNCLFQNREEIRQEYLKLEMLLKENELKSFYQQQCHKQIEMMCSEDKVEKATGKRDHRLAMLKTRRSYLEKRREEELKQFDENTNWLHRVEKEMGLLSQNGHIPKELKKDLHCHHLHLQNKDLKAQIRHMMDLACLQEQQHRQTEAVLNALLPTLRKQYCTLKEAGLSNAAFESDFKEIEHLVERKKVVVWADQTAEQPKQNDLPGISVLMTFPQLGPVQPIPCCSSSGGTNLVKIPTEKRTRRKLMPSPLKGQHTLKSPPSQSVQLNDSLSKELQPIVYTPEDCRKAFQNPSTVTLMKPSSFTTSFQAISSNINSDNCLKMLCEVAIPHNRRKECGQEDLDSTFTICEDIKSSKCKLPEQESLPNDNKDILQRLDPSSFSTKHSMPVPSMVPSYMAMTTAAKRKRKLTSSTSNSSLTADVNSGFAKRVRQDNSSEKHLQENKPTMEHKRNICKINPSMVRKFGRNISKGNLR
KIF18A, sequence (P02550 whole entry partner): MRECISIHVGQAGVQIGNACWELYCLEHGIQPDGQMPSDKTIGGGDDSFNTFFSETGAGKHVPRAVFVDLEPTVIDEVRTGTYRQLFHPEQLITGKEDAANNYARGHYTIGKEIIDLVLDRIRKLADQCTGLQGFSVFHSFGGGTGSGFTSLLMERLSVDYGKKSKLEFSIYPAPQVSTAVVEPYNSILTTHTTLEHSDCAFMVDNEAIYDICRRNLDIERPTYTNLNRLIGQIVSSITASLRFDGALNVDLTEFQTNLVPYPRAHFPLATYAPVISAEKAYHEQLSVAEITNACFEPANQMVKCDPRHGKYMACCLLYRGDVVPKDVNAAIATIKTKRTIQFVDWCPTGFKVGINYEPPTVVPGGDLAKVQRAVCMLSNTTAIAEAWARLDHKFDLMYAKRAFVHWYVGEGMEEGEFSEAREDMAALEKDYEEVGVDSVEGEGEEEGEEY
KIF18A, sequence (P02554 whole entry partner): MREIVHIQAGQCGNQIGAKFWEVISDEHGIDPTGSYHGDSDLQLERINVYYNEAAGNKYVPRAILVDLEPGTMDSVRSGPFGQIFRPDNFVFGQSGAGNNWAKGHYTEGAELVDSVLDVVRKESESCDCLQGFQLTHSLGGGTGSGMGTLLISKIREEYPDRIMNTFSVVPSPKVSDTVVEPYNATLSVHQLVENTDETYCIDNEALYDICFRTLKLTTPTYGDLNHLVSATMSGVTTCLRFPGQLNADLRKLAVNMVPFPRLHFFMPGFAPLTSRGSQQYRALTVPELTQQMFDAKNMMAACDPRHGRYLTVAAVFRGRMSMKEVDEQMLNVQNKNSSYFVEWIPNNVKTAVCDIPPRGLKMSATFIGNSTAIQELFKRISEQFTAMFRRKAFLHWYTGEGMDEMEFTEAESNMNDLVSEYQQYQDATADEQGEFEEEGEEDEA

Structure (SMILES) | IC50 (KIF18A) | IC50 (OVCAR-3 cells; Homo sapiens, OVCAR-3, 240 h) | IC50 (OVCAR-3 cells)
O=C(Nc1cccc2c1cc1n2CCOC1=O)c1ccc(NS(=O)(=O)CCO)cc1N1CCC2(CC1)CC2 [Example 346, 4-((2-hydroxyethyl)sulfonamido)-N-(1-oxo-3,4-dihydro-1H-[1,4]oxazino[4,3-a]indol-9-yl)-2-(6-azaspiro[2.5]oct-6-yl)benzamide] | 50 to 500 nM | > 5000 nM | 
O=C(Nc1ccc(NS(=O)(=O)CCO)cc1N1CCC2(CC1)CC2)c1cccc2c1cc1n2CCOC1 [Example 357] | ≤ 50 nM |  | 50 to 500 nM
O=C(Nc1cc(F)cc2c1cc1n2CCOC1)c1ccc(NS(=O)(=O)CCO)cc1N1CCC2(CC1)CC2 [Example 366, N-(7-fluoro-3,4-dihydro-1H-[1,4]oxazino[4,3-a]indol-9-yl)-4-((2-hydroxyethyl)sulfonamido)-2-(6-azaspiro[2.5]oct-6-yl)benzamide] | ≤ 50 nM | ≤ 50 nM | 
O=C(Nc1cc(F)cc2c1cc1n2CCOC1)c1ccc(NS(=O)(=O)CCO)cc1N1CCC(=C(F)F)CC1 [Example 367, 2-(4-(difluoromethylene)piperidin-1-yl)-N-(7-fluoro-3,4-dihydro-1H-[1,4]oxazino[4,3-a]indol-9-yl)-4-((2-hydroxyethyl)sulfonamido)benzamide] | ≤ 50 nM | 50 to 500 nM | 
O=C(Nc1cc(F)cc2c1nc1n2CCOC1)c1ccc(NS(=O)(=O)CCO)cc1N1CCC2(CC1)CC2 [Example 368, N-(7-fluoro-3,4-dihydro-1H-benzo[4,5]imidazo[2,1-c][1,4]oxazin-9-yl)-4-((2-hydroxyethyl)sulfonamido)-2-(6-azaspiro[2.5]oct-6-yl)benzamide] | ≤ 50 nM | ≤ 50 nM | 
O=C(Nc1cc(F)cc2c1nc1n2CCOC1)c1ccc(NS(=O)(=O)CCO)cc1N1CCC(=C(F)F)CC1 [Example 369, 2-(4-(difluoromethylene)piperidin-1-yl)-N-(7-fluoro-3,4-dihydro-1H-benzo[4,5]imidazo[2,1-c][1,4]oxazin-9-yl)-4-((2-hydroxyethyl)sulfonamido)benzamide] | ≤ 50 nM | 50 to 500 nM | 
CCS(=O)(=O)Nc1ccc(C(=O)Nc2cccc3c2cc2n3CCCC2O)c(N2CCC3(CC2)CC3)c1 (stereo not drawn) [Example 373, 4-(ethylsulfonamido)-N-(9-hydroxy-6,7,8,9-tetrahydropyridino[1,2-a]indol-1-yl)-2-(6-azaspiro[2.5]oct-6-yl)benzamide] | ≤ 50 nM | ≤ 50 nM | 
CCS(=O)(=O)Nc1ccc(C(=O)Nc2cccc3c2cc2n3CCC(F)(F)C2O)c(N2CCC(=C(F)F)CC2)c1 (stereo not drawn) [Example 381, N-(8,8-difluoro-9-hydroxy-6,7,8,9-tetrahydropyridino[1,2-a]indol-1-yl)-2-(4-(difluoromethylene)piperidin-1-yl)-4-ethyl sulfonamidobenzamide] | ≤ 50 nM |  | ≤ 50 nM
N#Cc1ccc(NC(=O)c2ccc(NS(=O)(=O)CCO)cc2N2CCC3(CC2)CC3)c2cc3n(c12)CCC(F)(F)C3O (stereo not drawn) [Example 438, N-(4-cyano-8,8-difluoro-9-hydroxy-6,7,8,9-tetrahydropyridino[1,2-a]indol-1-yl)-4-((2-hydroxyethyl)sulfonamido)-2-(6-azaspiro[2.5]oct-6-yl)benzamide] | 50 to 500 nM | ≤ 50 nM | 
CC1Cn2c(nc3c(NC(=O)c4ccc(NS(=O)(=O)CCO)cc4N4CCC5(CC4)CC5)cccc32)C(C)O1 (stereo not drawn) [Example 444, 2-(6-azaspiro[2.5]oct-6-yl)-N-(1,3-dimethyl-3,4-dihydro-1H-benzo[4,5]imidazo[2,1-c][1,4]oxazin-9-yl)-4-{[(2-hydroxyethyl)sulfonamide]}benzamide] | ≤ 50 nM |  | ≤ 50 nM
CC1Cn2c(nc3c(NC(=O)c4ccc(NS(=O)(=O)CCO)cc4N4CCC5(CC4)CC5)ccc(F)c32)C(C)O1 (stereo not drawn) [Example 445, 2-(6-azaspiro[2.5]oct-6-yl)-N-(6-fluoro-1,3-dimethyl-3,4-dihydro-1H-benzo[4,5]imidazo[2,1-c][1,4]oxazin-9-yl)-4-{[(2-hydroxyethyl)sulfonamide]}benzamide] | ≤ 50 nM |  | ≤ 50 nM
COc1ccc(NC(=O)c2ccc(NS(=O)(=O)CCO)cc2N2CCC3(CC2)CC3)c2cc3n(c12)CC(C)OC3C (stereo not drawn) [Example 449] | 50 to 500 nM |  | ≤ 50 nM
CC1(C)Cn2c(cc3c(NC(=O)c4ccc(NS(=O)(=O)CCO)nc4N4CCC5(CC4)CC5)cccc32)CO1 [Example 453, N-(3,3-dimethyl-3,4-dihydro-1H-[1,4]oxazino[4,3-a]indol-9-yl)-6-((2-hydroxyethyl)sulfonamido)-2-(6-azaspiro[2.5]octan-6-yl)nicotinamide] | 50 to 500 nM | 500 to 5000 nM | 
Cc1cc(NC(=O)c2ccc(NS(=O)(=O)CCO)cc2N2CCC(=C(F)F)CC2)c2cc3n(c2c1)CC(C)(C)OC3 [Example 467, 2-(4-(difluoromethylene)piperidin-1-yl)-4-((2-hydroxyethyl)sulfonamide)-N-(3,3,7-trimethyl-3,4-dihydro-1H-[1,4]oxazino[4,3-a]indol-9-yl)benzamide] | 50 to 500 nM |  | 50 to 500 nM
COc1ccc(NC(=O)c2ccc(NS(=O)(=O)CCO)cc2N2CCC(=C(F)F)CC2)c2cc3n(c12)CCC(F)(F)C3 [Example 477, N-(8,8-difluoro-4-methoxy-6,7,8,9-tetrahydropyridino[1,2-a]indol-1-yl)-2-(4-(difluoromethylene)piperidin-1-yl)-4-((2-hydroxyethyl)sulfonamido)benzamide] | 50 to 500 nM | ≤ 50 nM | 
COc1ccc(NC(=O)c2ccc(NS(=O)(=O)CCO)cc2N2CCC3(CC2)CC3)c2cc3n(c12)CCC(F)(F)C3OC (stereo not drawn) [Example 479, N-(8,8-difluoro-4,9-dimethoxy-6,7,8,9-tetrahydropyridino[1,2-a]indol-1-yl)-4-((2-hydroxyethyl)sulfonamido)-2-(6-azaspiro[2.5]oct-6-yl)benzamide] | 50 to 500 nM | 50 to 500 nM | 
COc1ccc(NC(=O)c2ccc(NS(=O)(=O)CCO)cc2N2CCC3(CC2)CC3)c2cc3n(c12)CCC(F)(F)C3O (stereo not drawn) [Example 482, N-(8,8-difluoro-9-hydroxy-4-methoxy-6,7,8,9-tetrahydropyridino[1,2-a]indol-1-yl)-4-((2-hydroxyethyl)sulfonamido)-2-(6-azaspiro[2.5]oct-6-yl)benzamide] | ≤ 50 nM | ≤ 50 nM | 
COc1ccc(NC(=O)c2ccc(NS(=O)(=O)CCO)cc2N2CCC3(CC2)CC3)c2nc3n(c12)CC(C)(C)OC3 [Example 488] | 50 to 500 nM |  | ≤ 50 nM
COc1ccc(NC(=O)c2ccc(NS(=O)(=O)CCO)cc2N2CCC(=C(F)F)CC2)c2nc3n(c12)CC(C)(C)OC3 [Example 489] | 50 to 500 nM | ≤ 50 nM | 
CC1(C)Cn2c(cc3c(NC(=O)c4ccc(NS(=O)(=O)CCO)cc4N4CCC5(CC4)CC5)ccc(F)c32)CO1 [Example 519, N-(6-fluoro-3,3-dimethyl-3,4-dihydro-1H-[1,4]oxazinyl[4,3-a]indol-9-yl)-4-((2-hydroxyethyl)sulfanilamido)-2-(6-azaspiro[2.5]oct-6-yl)benzamide] | 50 to 500 nM |  | 50 to 500 nM
CC1(C)Cn2c(cc3c(NC(=O)c4ccc(NS(=O)(=O)CCO)cc4N4CCC(=C(F)F)CC4)ccc(F)c32)CO1 [Example 520, 2-(4-(difluoromethylene)piperidin-1-yl)-N-(6-fluoro-3,3-dimethyl-3,4-dihydro-1H-[1,4]oxazino[4,3-a]indol-9-yl)-4-((2-hydroxyethyl)sulfonamido)benzamide] | 50 to 500 nM | 50 to 500 nM | 
CC1(C)Cn2c(cc3c(NC(=O)c4ccc(NS(=O)(=O)CCO)cc4N4CCC5(CC4)CC5)ccc(Cl)c32)CO1 [Example 521, 2-(6-azaspiro[2.5]oct-6-yl)-N-(6-chloro-3,3-dimethyl-3,4-dihydro-1H-[1,4]oxazino[4,3-a]indol-9-yl)-4-{[(2-hydroxyethyl)sulfonamide]}benzamide] | 50 to 500 nM |  | 50 to 500 nM
Cc1ccc(NC(=O)c2ccc(NS(=O)(=O)CCO)cc2N2CCC3(CC2)CC3)c2cc3n(c12)CC(C)(C)OC3 [Example 525] | 50 to 500 nM |  | ≤ 50 nM
Cc1ccc(NC(=O)c2ccc(NS(=O)(=O)CCO)cc2N2CCC(=C(F)F)CC2)c2cc3n(c12)CC(C)(C)OC3 [Example 526] | 50 to 500 nM | 50 to 500 nM | 
CCNC(=O)c1ccc(NC(=O)c2ccc(NS(=O)(=O)CCO)cc2N2CCC3(CC2)CC3)c2cc3n(c12)CC(C)(C)OC3 [Example 527] | 50 to 500 nM | ≤ 50 nM | 
CCNC(=O)c1ccc(NC(=O)c2ccc(NS(=O)(=O)CCO)cc2N2CCC(=C(F)F)CC2)c2cc3n(c12)CC(C)(C)OC3 [Example 528] | 50 to 500 nM | ≤ 50 nM | 
Cn1cnc(-c2ccc(NC(=O)c3ccc(NS(=O)(=O)CCO)cc3N3CCC4(CC3)CC4)c3cc4n(c23)CC(C)(C)OC4)c1 [Example 529] | 50 to 500 nM | ≤ 50 nM | 
